Measured values taken from US8309766B2 (Obschestvo S. Organichennoi Otvetstvennostiyu …, priority 2005, dated 2012).
Like-named read-outs stand apart in the source and are kept apart here.

Key:
[1] = tested on: "hot plate" test in mice; assay: Analgetic activity on the model "hot plate"; format: in vivo, white mongrel mice; details: 10 mg/kg; for response vs control in vivo at 10 mg/kg / change in vivo at 10 mg/kg: Mus musculus; for response vs control in vivo at 10 mg/kg: percent of background, read-out: Latent time of NT (%); for change in vivo at 10 mg/kg: read-out: Analgesia (%)
Procedure: The tests were conducted on males of white mongrel mice weighing 22-24 grams. The animals were individually placed on a hot plate (manufactured by the firm “Ugo Basile”), a temperature of which remained constant and was equal to 55° C. The following first manifestations of pain reaction were recorded: licking paws, jumping up prior to administration of a substance (background parameters) and 0.5, 1, 2, 3 and 4 hours post administration of a substance. Substances were administered […] (using a probe). A weighed amount of a substance was thoroughly mixed in 0.1 ml Tween 80 until a solution was obtained, then normal saline was added up to a volume of 0.5 ml. Average latent time of nociception threshold (NT) was calculated in every group. The results obtained were expressed in percent of the background values. Analgetic effect (in %) was calculated according to the formula: A−100%=X, wherein A is a background parameter; X is analgetic effect (in %)
A is (time 0.5 to 4 hours post administration×100%): background time
As reference drugs, Analgin (150 mg/kg), Paracetamol (200 mg/kg), Ketorol (10 mg/kg), were used.

[2] = tested on: gastric mucosa of rats; assay: Ulcerogenic effect on gastric mucosa; format: in vivo, outbreed rats; details: 30 mg/kg once intragastrally, at 24 hours, M ± m
Procedure: The tests were carried out on females of outbreed rats weighing 300-320 grams. The compounds tested were administered once intragastrally at a dose 30 mg/kg to rats deprived of feed for 24 hours prior to the test. Animals in the control group were administered distilled water in the same volume. At 24 hours the animals were sacrificed and stomachs were extracted. An empty stomach was filled with 2% formalin solution and it was placed into a beaker with formalin. 30 minutes later, the stomach was opened along the great curvature, expanded on a slide, fixed and washed with distilled water. Using the magnifying glass MBS-9 (8-fold magnification) length and width of gastric mucosa defects was measured and area in mm^2 was calculated (1 division of the magnifying glass ruler=0.1 mm). Ulcerogenic effect of a substance was assessed by ulcerous lesion area of gastric mucosa according to the technique presented in Rukovodstvo po experimental'nomu (doklinicheskomu) izucheniju novykh pharmacologicheskikh veshchestv (the Guide on Experimental (pre-clinical) Study of Novel Pharmacological Substances)./Moscow. “Remedium” publishers. 2000, 398 pages.

[3] = tested on: rat uterine horn's SMP; assay: Serotonin-induced contracture of rat uterine horn smooth muscle preparation; design: species or system Wistar rats; details: for Inhibition of contractions of the rat uterine horn's SMP, % / Rate of contractions of the rat uterine horn's SMP during 5 minutes: serotonin 10^−5 M; for Rate of contractions of the rat uterine horn's SMP during 5 minutes: control 9
Procedure: The model of serotonin-induced soft muscular contracture of an uterine horn [Blattner H. G., Dehnert H. et al. Experiments on isolated smooth muscle preparation. Ed. J. M. Barnden and R. Colson, 1980] was created on females of Wistar rats weighing 300-350 grams. A prepared smooth muscle preparation (SMP) was placed into a thermo-regulated chamber (+37° C.) containing Tirode solution with lowered calcium content in order to prevent spontaneous contractive activity of the smooth muscle preparation. Contraction of the uterine horn was recorded using the mechanotron 6M×2B connected to the polygraph KPS-4; initial load to the object was 0.5-0.7 grams.
Contracture of the SMP was induced by introduction into incubation medium of 0.1 ml serotonin (Sigma) at concentration 10^−5 M. 30-60 seconds post administration of the mediator, a peak contraction amplitude of the uterine horn was recorded. Compound IX was introduced into the chamber at the peak amplitude of contractions or under conditions of incubation (within the same range of concentrations) for 15 minutes.
The effect of compound IX being tested was assessed by a number of contractions and by lowering the amplitude value.

[4] = tested on: mice in the model of hypoxic hypoxia with hypercapnia; assay: Hypoxic hypoxia with hypercapnia in a hermetic volume; format: in vivo; details: for Duration of hypoxia (life span), M ± m: control 25.6 ± 0.6
Source text: In order to imitate acute oxygen insufficiency the hypoxia model with hypercapnia in a hermetic volume was used (Luk'yanova L. D., Gatsura V. V., Pastushenkov L. V. Metodicheskiye recomendatsii po experimental'nomu izucheniju preparatov, predlagajemykh dlya klinicheskogo isuchenija v kachestve antihypoxicheskikh sredsyv (Methodological recommendations on experimental study of preparations proposed for clinical examination as anti-hypoxic agents). Moscow. 1960. P. 1-19]. […] weighing 27-29 grams were individually placed into 260 ml glass jars which were hermetically closed. As the animals consume oxygen, its concentration in the vessel lowers that results in death of the animals. Life span of the mice in minutes was recorded.

[5] = tested on: mice, forced swimming; assay: "Behavioral despair" test according to Porsolt; format: in vivo; details: 50 mg/kg orally
Procedure: The “behavioral despair” test according to Porsolt [R. D. Porsolt, A. Bertin and M. Jalfre.//in mice: A primary Screening Test for Antidepressants. Arch. Int. Pharmacodyn., 1977, 229, p. 327-336] is a predictive test for drugs with antidepressant action.
Stress state in mice (weighing 27-30 grams) is induced by forced swimming. Animals are placed into a cylinder (height 25 cm, diameter 10 cm) filled to ⅓ with water at temperature 21-23° C. The animals cannot escape from the cylinder by themselves. Following a short time of activity the animals develop a so called “behavioral depression” characterized by hovering of animals, immobilization duration of which can be fixed. The experiment is carried out in two days. One a first day, animals are placed into the cylinder for 15 minutes (pre-test). After removal from water, the animals are dried and preparations under testing are administered. At 24 hours, the preparations are administered again and one hour later the animals are placed into the cylinder for 6 minutes. During first two minutes the animals are actively swimming; during the subsequent four minutes, behavioral depression develops manifested by immobilization (hovering) which is fixed for 4 minutes and is measure in seconds. Compound IX and the reference antidepressant drug Fluoxetin were administered orally at a dose 50 mg/kg.

[6] = added at the peak serotonin-induced contracture

Q: How did the “latent time of nociception threshold, M ± m” value (shortened to “latent time”) ([1]; 30 minutes post administration) turn out when O=C(CCc1ccc(O)cc1)NCCc1ccccc1 [Compound IX, 3-(p-hydroxyphenyl)-propionylphenylethylamine] was run?
A: Its value is 8.4 ± 1.23 s.

Q: What about the “latent time” value ([1]; 60 minutes post administration) of the same compound?
A: The value was 7.36 ± 1.04 s.

Q: What about the “latent time” value ([1]; 120 minutes post administration) of the same compound?
A: The value was 9.83 ± 2.52 s.

Q: What about the “latent time” value ([1]; 240 minutes post administration) of the same compound?
A: Its value is 7.72 ± 0.24 s.

Q: What about the response vs control in vivo at 10 mg/kg ([1]; 0.5 h, 30 minutes) of the same compound?
A: The response vs control in vivo at 10 mg/kg was 203%.

Q: And the change in vivo at 10 mg/kg ([1]; 0.5 h, 30 minutes)?
A: The change in vivo at 10 mg/kg was 103%.

Q: What about the response vs control in vivo at 10 mg/kg ([1]; 1 h, 60 minutes) of the same compound?
A: The response vs control in vivo at 10 mg/kg was 178%.

Q: What about the change in vivo at 10 mg/kg ([1]; 1 h, 60 minutes) of the same compound?
A: The change in vivo at 10 mg/kg was 77.8%.

Q: And the response vs control in vivo at 10 mg/kg ([1]; 2 h, 120 minutes)?
A: The response vs control in vivo at 10 mg/kg was 237%.

Q: And the change in vivo at 10 mg/kg ([1]; 2 h, 120 minutes)?
A: The change in vivo at 10 mg/kg was 137%.

Q: And the response vs control in vivo at 10 mg/kg ([1]; 4 h, 240 minutes)?
A: The response vs control in vivo at 10 mg/kg was 186%.

Q: What about the change in vivo at 10 mg/kg ([1]; 4 h, 240 minutes) of the same compound?
A: The change in vivo at 10 mg/kg was 86.5%.

Q: What about the “Area of ulcerous lesion” value [2] of the same compound?
A: The value was 0 mm^2.

Q: And the “Inhibition of contractions of the rat uterine horn's SMP, %” value [3, 6]?
A: The value was 44.4%.

Q: What about the “Rate of contractions of the rat uterine horn's SMP during 5 minutes” value [3, 6] of the same compound?
A: The value was 5.

Q: And the “SMP contracture after the slowed contractions” value ([3]; pre-incubation conditions)?
A: The value was “complete blockade”.

Q: What about the “Inhibition of contractions of the rat uterine horn's SMP, %” value ([3]; pre-incubation for 15 minutes) of the same compound?
A: Its value is 55.6%.

Q: What about the “Rate of contractions of the rat uterine horn's SMP during 5 minutes” value ([3]; pre-incubation for 15 minutes) of the same compound?
A: Its value is 4.

Q: What about the “% change from the control” value ([4]; 10 mg/kg) of the same compound?
A: Its value is 0%.

Q: And the “Duration of hypoxia (life span), M ± m” value ([4]; 10 mg/kg)?
A: Its value is 25.3 ± 0.8 min.

Q: What about the “Duration of hypoxia (life span), M ± m” value ([4]; 50 mg/kg) of the same compound?
A: Its value is 32.6 ± 2.6 min.

Q: What about the “% change from the control” value [5] of the same compound?
A: Its value is −21%.

Q: And the “immobilization time, M ± m” value ([5]; fixed for 4 minutes, control 195.0 ± 10.3)?
A: The value was 154.0 ± 11.7 s.
